We go through one compound from patent US20250195521A1 (Revolution Medicines, Inc., priority 2020, published 2025).

Some results are limits rather than exact numbers.

The subject of assay [1] is KLN205 cells (SHP2 G503V). As to the kind of experiment: pERK AlphaLISA in KLN205 cells. The assay is classed as cell-based, mouse. The conditions noted are these: KLN205, up to highest test concentration of 10 μM. The source says: (§1) In this example, two mouse tumor cell lines, KLN205 (lung squamous cell carcinoma) and PAN02 (pancreatic cancer), were characterized.
(§2) See FIGS. 5A through 5D, which are graphs depicting the pERK AlphaLISA® assay.

Assay [2] has as its system PAN02 tumors (SHP2 G503V). Briefly: PAN02 syngeneic tumor model (Example 2). The settings on record: PAN02, C57/B6 mice; RMC-4550 40 mg/kg every 2 days oral. The assay is classed as in vivo, mouse.
Assay [3] has as its system SHP2 variants expressed in T-REx-293 (HEK-293) cells. As to the kind of experiment: pERK AlphaLISA in isogenic T-REx-293-SHP2 cells, EGF stimulated. The assay is classed as cell-based. The settings on record: SHP2 G503V. The procedure:
Assay data was plotted and EC50 values were determined using four-parameter concentration-response model in GraphPad Prism 7. Data provided are mean+/−standard deviation of duplicate values from representative experiments.

Assay [4] concerns KLN205 tumors (SHP2 G503V). As to the kind of experiment: KLN205 syngeneic tumor model (Example 2). The assay is classed as in vivo, mouse. The settings on record: KLN205, DBA/2 mice; RMC-4550 30 mg/kg daily oral.
Assay [5] has as its system Capan-2 tumors (KRAS G12V/wt). As to the kind of experiment: Capan-2 KRAS G12V/wt xenograft efficacy. The assay is classed as in vivo, mouse. The conditions noted are these: RMC-4550 20 mg/kg po every other day; Compound A 100 mg/kg po bid; Day 40. Here is the method:
Capan-2 cells were implanted in 50% Matrigel. Animals were randomized and treatment was initiated at average tumor volume of ˜180 mm3. […] Ns=no significance; *** p<0.001 by one-way ANOVA.
Once tumors reached an average size of ˜180 mm3, mice were randomized to treatment groups to start the administration of test articles or vehicle. […] Body weight and tumor volume (using calipers) was measured twice weekly until study endpoints.

Assay [6] relates to PAN02 cells (SHP2 G503V). As to the kind of experiment: CellTiter-Glo viability in PAN02 cells. The assay is classed as cell-based, mouse. The conditions noted are these: PAN02, up to highest test concentration of 10 μM.
Excerpt: as §1, §2

For assay [7], the system named is KLN205 cells (SHP2 G503V). Briefly: CellTiter-Glo viability in KLN205 cells. The assay is classed as cell-based, mouse. The conditions noted are these: KLN205, up to highest test concentration of 10 μM.
Excerpt: as §1, §2
A general note: ATP-based viability assays read luminescence as a measure of living cells.

Assay [8] relates to PAN02 cells (SHP2 G503V). As to the kind of experiment: pERK AlphaLISA in PAN02 cells. The assay is classed as cell-based, mouse. The conditions noted are these: PAN02, up to highest test concentration of 10 μM.
Excerpt: as §1, §2

The test system of assay [9] is LN229.E76K tumors (PTPN11 E76K). As to the kind of experiment: LN229.E76K glioblastoma xenograft (Example 8). The assay is classed as in vivo, mouse. The settings on record: PO daily; Compound SOS1-(C) 50 mg/kg, RMC-4550 30 mg/kg, cobimetinib […]. Here is the method: 6-7 week athymic nude mice were implanted with LN229.E76K in 50% matirgel (10×10^6 cells/mouse) subcutaneously in the flank. Once tumors reached an average size of 200 mm^3, mice were randomized into treatment groups to start the administration of test articles or control. All treatments were administered daily by oral gavage. Body weight and tumor volume (using calipers) was measured twice weekly until study endpoint.

Broadly, the IC50 is the point on the concentration scale where inhibition reaches its midpoint. A higher IC50 goes with lower potency. The TGI is how far tumour growth fell short of that in controls. A low value points to a weaker effect on the tumour. In the case of `Cc1nc(N2CCC3(CC2)CO[C@@H](C)[C@H]3N)c(CO)nc1-c1cccc(Cl)c1Cl` [RMC-4550], the “inhibition of pERK” value in assay [1] and in [8] was “low or moderate inhibition” each time. For the same compound, the tumor growth inhibition result in [2] and in [4] was “less than 50%” each time. For the same compound, the IC50 in assay [3] was > 30 µM. Moreover, the TGI in [5] is 39%. Also, the “inhibition of cell growth” value in [6] and in assay [7] was “low or moderate inhibition” in each case. Besides, the “tumor growth inhibition (TGI)” value in [9] was 7%.
